Measured values published in article PMC9612005 (Pharmaceutics, 2022).

Legend:
Format in all cases: cell-based
cone photoreceptors = experiment: µERG a-wave of mouse retinal explants on MEA, photopic (light-adapted) stimulation; settings: for decrease in the a-wave slope vs control / a-wave amplitude / a-wave slope: photopic; for decrease in the a-wave slope vs control: averaged; for decrease in the a-wave slope vs control / cone a-wave responses under photopic stimulation: inhibitor 50 µM, activator 0.1 µM; for a-wave amplitude / a-wave slope: inh 50 µM, act 0.1 µM, mean ±std; for cone a-wave responses under photopic stimulation: ≥+0.5 log
Procedure: (§1) Further animal experiments were performed using adult postnatal-day (P) 25–30 C57BL/6J mice (n = 12). Animals were housed under standard 12 h white cyclic lighting, had free access to food, water, and playgrounds, and were used irrespective of gender. Animal protocols compliant with §4 of the German law on animal protection were reviewed and approved by the Tübingen University committee on animal protection, and registered on 30 March 2022 under the No. AK05/22M. Moreover, experiments were performed in accordance with the ARVO statement for the use of animals in ophthalmic and visual research. All efforts were made to minimize the number of mice used and their suffering.
(§2) The mice were kept overnight in a ventilated light-tight box for dark-adaption. Subsequent procedures were performed under dim red light. The eyes of the mice were enucleated; then, the retina was isolated in extracellular solution containing (in mM): 125 NaCl, 26 NaHCO3, 2.5 KCl, 2 CaCl2, 1 MgCl2, 1.25 NaH2PO4, and 20 glucose, and was maintained at pH 7.4 using carboxygen perfusion (95/5% O2/CO2). All chemicals were obtained from Merck KGaA (Darmstadt, Germany). For MEA recording, the retinas were placed in the MEA-recording chamber (GC-side down). During the recordings, the tissue was perfused with carboxygenated medium at 32 °C. The chamber perfusion rate was adjusted to 2 mL/min.
(§3) Electrophysiological recordings were performed to assess the light dependent retinal responses (photoreceptors µERG and RGCs spikes) by means of a multi-electrode array system (MEA, USB-MEA60-Up-BC-System-E from Multi Channel Systems, Reutlingen, Germany) equipped with MEA 200/30iR-ITO-pr. The recordings were performed at a 25,000 Hz sampling-rate collecting unfiltered raw data. The trigger-synchronized operation of the light stimulation (LEDD1B T-Cube, Thorlabs) and MEA recording were controlled by the recording protocol set within the MCRack software (v 4.6.2, Multi Channel Systems, Reutlingen, Germany) and the digital I/O box (MCS). The light stimulation (white light LED, 2350 mW, MCWHD3, Thorlabs, Newton, NJ, USA) was applied from beneath the transparent glass MEA, guided by optic fiber and optics. A spectrometer USB4000-UV-VIS-ES (Ocean Optics, Orlando, FL, USA) was employed to calibrate the intensity of the applied light-stimulation protocol. To discriminate the rod and cone photoreceptor responses, a light-stimulation protocol for ex vivo MEA recordings was established following the standard in-vivo ERG protocol. For scotopic recordings (rod responses), the animals were dark-adapted (12 h), while for the photopic recordings (cone responses), the retinal explants were light-adapted on the MEA (5 min at intensity of 4.20 × 10^13 photons/cm^2/s), subsequent to scotopic stimulation. The parameters of the light stimuli were set as: light flash 250 ms long (3 repetition per light intensity, 20 s interval). Scotopic: 10 stimuli in 0.5 log steps from −4.5 to 0.0 (1.33 × 10^9–4.20 × 10^13 photons/cm^2/s). Photopic (background light: 4.20 × 10^13 photons/cm^2/s): four stimuli in 0.5 log steps from +0.5 to +2.0 (1.33 × 10^14–4.20 × 10^15 photons/cm^2/s).
(§4) MEA-recorded raw data files were filtered employing a Butterworth 2nd order filter (MC-Rack, Multi-channel systems) to extract the µERG (field potentials: bandpass 0.01–100 Hz) and spikes (high pass 200 Hz). The filtered data were converted to *.hdf files by MC DataManager (v1.6.1.0, Multi Channel Systems, Reutlingen, Germany) for further data processing in MATLAB [39]. Shown traces data are the average of 30 MEA recording electrodes, per condition. n = 5 retinae were recorded per condition. Statistical significance was estimated by one-way ANOVA followed by the Dunnett´s test for multiple comparisons. […]

rod photoreceptors = experiment: µERG a-wave of mouse retinal explants on MEA, scotopic (dark-adapted) stimulation; settings: for photoreceptor (rod) responses under low scotopic light: <−2.0 log; for photoreceptor (rod) responses under low scotopic light / reduction of a-wave amplitudes / decrease in the a-wave slope vs control: inhibitor 50 µM, activator 0.1 µM; for reduction of a-wave amplitudes: higher light intensities (≥−2.0 log); for a-wave amplitude / a-wave slope: inh 50 µM, act 0.1 µM, mean ±std
Procedure: as §1, §2, §3, §4

retinal ganglion cells = experiment: Light-evoked retinal ganglion cell spike responses of mouse retinal explants on MEA; settings: for Spike count (10 ms bin): inh 50 µM, act 0.1 µM, mean ±std; for drop of RGC spiking activity: ≥−2.0 log
Procedure: as §1, §2, §3
MEA-recorded raw data files were filtered employing a Butterworth 2nd order filter (MC-Rack, Multi-channel systems) to extract the µERG (field potentials: bandpass 0.01–100 Hz) and spikes (high pass 200 Hz). The filtered data were converted to *.hdf files by MC DataManager (v1.6.1.0, Multi Channel Systems, Reutlingen, Germany) for further data processing in MATLAB [39]. Shown traces data are the average of 30 MEA recording electrodes, per condition. n = 5 retinae were recorded per condition. Statistical significance was estimated by one-way ANOVA followed by the Dunnett´s test for multiple comparisons. Experimental data are given as mean ± SEM.

[1] = scotopic, light intensity 0.0 log
[2] = scotopic, light intensity -0.5 log
[3] = scotopic, light intensity -1.0 log
[4] = scotopic, light intensity -1.5 log
[5] = scotopic, light intensity -2.0 log
[6] = scotopic, light intensity -2.5 log
[7] = scotopic, light intensity -3.0 log
[8] = scotopic, light intensity -3.5 log
[9] = scotopic, light intensity -4.0 log
[10] = scotopic, light intensity -4.5 log
[11] = photopic, light intensity +0.5 log
[12] = photopic, light intensity +1.0 log
[13] = photopic, light intensity +1.5 log
[14] = photopic, light intensity +2.0 log
[15] = scotopic, inhibitor 50 µM, activator 0.1 µM

O=c1c2nc(Br)n([C@@H]3O[C@@H]4CO[P@@](=O)(S)O[C@H]4[C@H]3O)c2nc2[nH]c(-c3ccccc3)cn12 [Rp-8-Br-PET-cGMPS]
decrease in the a-wave slope vs control (cone photoreceptors): ~90% | a-wave amplitude (cone photoreceptors; light intensity +0.5 log): -1.53± 0.76 µV | a-wave slope (cone photoreceptors; light intensity +0.5 log): 0.03± 0.02 µV / 20 ms | a-wave amplitude (cone photoreceptors; light intensity +1.0 log): -1.98± 0.87 µV | a-wave slope (cone photoreceptors; light intensity +1.0 log): -0.04± 0.02 µV / 20 ms | a-wave amplitude (cone photoreceptors; light intensity +1.5 log): -1.96± 0.89 µV | a-wave slope (cone photoreceptors; light intensity +1.5 log): -0.05± 0.05 µV / 20 ms | a-wave amplitude (cone photoreceptors; light intensity +2.0 log): -2.27± 0.97 µV | a-wave slope (cone photoreceptors; light intensity +2.0 log): -0.01± 0.01 µV / 20 ms | cone a-wave responses under photopic stimulation (cone photoreceptors): the cone a-wave amplitudes showed only minimal increases | photoreceptor (rod) responses under low scotopic light (rod photoreceptors): essentially abolished photoreceptor responses | light intensity at which rod a-wave response was detectable (rod photoreceptors; scotopic): −2.0 log units | reduction of a-wave amplitudes (rod photoreceptors; scotopic): ~ 96% | a-wave amplitude (rod photoreceptors; [1]): -7.32± 1.37 µV | a-wave slope (rod photoreceptors; [1]): -0.15± 0.11 µV / 20 ms | a-wave amplitude (rod photoreceptors; [2]): -4.49± 1.49 µV | a-wave slope (rod photoreceptors; [2]): -0.07± 0.04 µV / 20 ms | a-wave amplitude (rod photoreceptors; [3]): -3.62± 1.17 µV | a-wave slope (rod photoreceptors; [3]): -0.07± 0.04 µV / 20 ms | a-wave amplitude (rod photoreceptors; [4]): -2.22± 1.40 µV | a-wave slope (rod photoreceptors; [4]): -0.03± 0.03 µV / 20 ms | a-wave amplitude (rod photoreceptors; [5]): -1.85± 0.71 µV | a-wave slope (rod photoreceptors; [5]): -0.04± 0.03 µV / 20 ms | a-wave amplitude (rod photoreceptors; [6]): 0.00± 0.00 µV | a-wave slope (rod photoreceptors; [6]): -0.05± 0.03 µV / 20 ms | a-wave amplitude (rod photoreceptors; [7]): 0.00± 0.00 µV | a-wave slope (rod photoreceptors; [7]): -0.04± 0.02 µV / 20 ms | a-wave amplitude (rod photoreceptors; [8]): 0.00± 0.00 µV | a-wave slope (rod photoreceptors; [8]): 0.02± 0.02 µV / 20 ms | a-wave amplitude (rod photoreceptors; [9]): 0.00± 0.00 µV | a-wave slope (rod photoreceptors; [9]): -0.02± 0.00 µV / 20 ms | a-wave amplitude (rod photoreceptors; [10]): 0.00± 0.00 µV | a-wave slope (rod photoreceptors; [10]): -0.02± 0.03 µV / 20 ms | decrease in the a-wave slope vs control (rod photoreceptors; scotopic): up to 90% | Spike count (10 ms bin) (retinal ganglion cells; [11]): 4.85± 0.92 | Spike count (10 ms bin) (retinal ganglion cells; [12]): 4.40± 0.94 | Spike count (10 ms bin) (retinal ganglion cells; [13]): 4.51± 1.07 | Spike count (10 ms bin) (retinal ganglion cells; [14]): 4.92± 1.12 | Spike count (10 ms bin) (retinal ganglion cells; [1]): 3.80± 0.26 | Spike count (10 ms bin) (retinal ganglion cells; [2]): 3.48± 0.49 | Spike count (10 ms bin) (retinal ganglion cells; [3]): 2.91± 0.16 | Spike count (10 ms bin) (retinal ganglion cells; [4]): 2.80± 0.63 | Spike count (10 ms bin) (retinal ganglion cells; [5]): 2.55± 0.62 | Spike count (10 ms bin) (retinal ganglion cells; [6]): 0.83± 0.28 | Spike count (10 ms bin) (retinal ganglion cells; [7]): 0.72± 0.10 | Spike count (10 ms bin) (retinal ganglion cells; [8]): 1.14± 0.50 | Spike count (10 ms bin) (retinal ganglion cells; [9]): 0.98± 0.44 | Spike count (10 ms bin) (retinal ganglion cells; [10]): 1.03± 0.27 | drop of RGC spiking activity (retinal ganglion cells; [15]): 30–40% | RGC spiking activity under photopic stimulation (retinal ganglion cells; ≥+0.5 log, inhibitor 50 µM, activator 0.1 µM): remained nearly at control levels

Nc1nc2c(nc(Sc3ccc(Cl)cc3)n2[C@@H]2O[C@@H]3COP(=O)(O)O[C@H]3[C@H]2O)c(=O)[nH]1 [8-pCPT-cGMP]
decrease in the a-wave slope vs control (cone photoreceptors): ~ 60% | a-wave amplitude (cone photoreceptors; light intensity +0.5 log): -3.04± 1.68 µV | a-wave slope (cone photoreceptors; light intensity +0.5 log): -0.04± 0.06 µV / 20 ms | a-wave amplitude (cone photoreceptors; light intensity +1.0 log): -7.72± 1.37 µV | a-wave slope (cone photoreceptors; light intensity +1.0 log): 0.07± 0.22 µV / 20 ms | a-wave amplitude (cone photoreceptors; light intensity +1.5 log): -10.79± 1.41 µV | a-wave slope (cone photoreceptors; light intensity +1.5 log): -0.18± 0.09 µV / 20 ms | a-wave amplitude (cone photoreceptors; light intensity +2.0 log): -12.55± 1.72 µV | a-wave slope (cone photoreceptors; light intensity +2.0 log): -0.23± 0.11 µV / 20 ms | cone a-wave responses under photopic stimulation (cone photoreceptors): no effect on cones | photoreceptor (rod) responses under low scotopic light (rod photoreceptors): rod-responses were essentially absent | reduction of a-wave amplitudes (rod photoreceptors; scotopic): 60–80% | a-wave amplitude (rod photoreceptors; [1]): -27.81± 6.62 µV | a-wave slope (rod photoreceptors; [1]): -0.64± 0.21 µV / 20 ms | a-wave amplitude (rod photoreceptors; [2]): -24.30± 7.17 µV | a-wave slope (rod photoreceptors; [2]): -0.39± 0.16 µV / 20 ms | a-wave amplitude (rod photoreceptors; [3]): -18.28± 4.38 µV | a-wave slope (rod photoreceptors; [3]): -0.31± 0.09 µV / 20 ms | a-wave amplitude (rod photoreceptors; [4]): -14.14± 3.10 µV | a-wave slope (rod photoreceptors; [4]): -0.19± 0.17 µV / 20 ms | a-wave amplitude (rod photoreceptors; [5]): -11.59± 2.75 µV | a-wave slope (rod photoreceptors; [5]): -0.12± 0.22 µV / 20 ms | a-wave amplitude (rod photoreceptors; [6]): -3.02± 0.74 µV | a-wave slope (rod photoreceptors; [6]): -0.07± 0.01 µV / 20 ms | a-wave amplitude (rod photoreceptors; [7]): 0.04± 0.05 µV | a-wave slope (rod photoreceptors; [7]): 0.09± 0.15 µV / 20 ms | a-wave amplitude (rod photoreceptors; [8]): 0.00± 0.00 µV | a-wave slope (rod photoreceptors; [8]): -0.04± 0.08 µV / 20 ms | a-wave amplitude (rod photoreceptors; [9]): 0.00± 0.00 µV | a-wave slope (rod photoreceptors; [9]): 0.02± 0.01 µV / 20 ms | a-wave amplitude (rod photoreceptors; [10]): 0.00± 0.00 µV | a-wave slope (rod photoreceptors; [10]): 0.11± 0.10 µV / 20 ms | decrease in the a-wave slope vs control (rod photoreceptors; scotopic): ~ 85% | Spike count (10 ms bin) (retinal ganglion cells; [11]): 4.35± 0.79 | Spike count (10 ms bin) (retinal ganglion cells; [12]): 4.43± 0.47 | Spike count (10 ms bin) (retinal ganglion cells; [13]): 4.74± 1.09 | Spike count (10 ms bin) (retinal ganglion cells; [14]): 4.56± 0.92 | Spike count (10 ms bin) (retinal ganglion cells; [1]): 3.92± 0.24 | Spike count (10 ms bin) (retinal ganglion cells; [2]): 3.60± 0.35 | Spike count (10 ms bin) (retinal ganglion cells; [3]): 3.03± 0.52 | Spike count (10 ms bin) (retinal ganglion cells; [4]): 3.04± 0.49 | Spike count (10 ms bin) (retinal ganglion cells; [5]): 2.41± 0.38 | Spike count (10 ms bin) (retinal ganglion cells; [6]): 1.28± 0.51 | Spike count (10 ms bin) (retinal ganglion cells; [7]): 0.73± 0.49 | Spike count (10 ms bin) (retinal ganglion cells; [8]): 0.86± 0.30 | Spike count (10 ms bin) (retinal ganglion cells; [9]): 0.89± 0.07 | Spike count (10 ms bin) (retinal ganglion cells; [10]): 0.67± 0.22 | drop of RGC spiking activity (retinal ganglion cells; [15]): 35–47%
